In patent US20210189330A1, “INDUCED TOTIPOTENT STEM CELLS AND METHODS FOR MAKING AND USING THE SAME” (THE J. DAVID GLADSTONE INSTITUTES, A TESTAMENTARY TRUST …, priority 2017, published 2021):

Tested on: mEpiSCs
Experiment: mEpiSC conversion culture in first conversion media with Smad inhibitor
Format: cell-based, mouse
Conditions: 1 μM on Day 0, 3 μM from Days 1-3; observed Conversion Day 1
Description: Under the conditions tested, the conversion bias toward floating iBCs was less efficient; therefore, more cells were required than for the 3D hemispheres (discussed in example above) in order to observe or harvest iBCs. It is contemplated that optimization of timing and Smad inhibition may vary depending on the cell type used. […] Two phases of media were prepared and cells were fed from days 0-3 (“first conversion media”) and then days 4-7 (“second conversion media”), respectively.
At Conversion Day 0, approximately 14 hours after preparation of mEpiSCs for conversion, cells were observed as evenly dispersed, mostly single cells. The first conversion media was prepared using CTSFES media with Pen/Strep and 2-Mercaptoethanol described above as the base media and supplemented with BMP4 (10 ng/mL), SB431542 (1 μM on Day 0, 3 μM from Days 1-3), and AA (64 μg/mL). On Conversion Day 1, cells were observed growing with some cells remaining colony-like while others began to flatten at the edges. (FIG. 4). […] At approximately the same time each day, media was replaced and cells were incubated overnight at 37° C.

NC(=O)c1ccc(-c2nc(-c3ccc4c(c3)OCO4)c(-c3ccccn3)[nH]2)cc1 [SB431542]
toxicity to starting mEpiSCs: toxicity was also believed to be killing some cells
